# Measured values taken from ChEMBL document CHEMBL4622963, “Optimization of Nicotinamides as Potent and Selective IRAK4 Inhibitors with Efficacy in a Murine Model of Psoriasis” (ACS Med Chem Lett, 2020).
# Assays:
# [1] = biological target: Tyrosine-protein kinase Lck (Homo sapiens, UniProt P06239); experiment: Inhibition of N-terminal His6-tagged human full length recombinant LCK expressed in baculovirus infected Sf21 cells
# [2] = Drug uptake in imiquimod-induced C57BL/6 mouse model of psoriasis at 1 mg/kg, po dosed via gavage twice daily and measured after 8 hrs by LC-MS analysis; assay type: ADME, organism-based; conditions: in vivo, read-out: Drug uptake
# Mus musculus [3] = species on record: Mus musculus; experiment: animal or person; conditions: C57BL/6, po, 144 h, read-out: INH
# [4] = Drug uptake in imiquimod-induced C57BL/6 mouse model of psoriasis at 10 mg/kg, po dosed via gavage twice daily and measured after 8 hrs by LC-MS analysis; assay type: ADME, organism-based; conditions: in vivo, read-out: Drug uptake
# [5] = Half life in mouse at 2 mg/kg, iv administered as infusion or 5 mg/kg, po via gavage measured up to 24 hrs by LC-MS analysis; assay type: ADME, organism-based; conditions: in vivo
# [6] = Clearance in mouse at 2 mg/kg, iv administered as infusion or 5 mg/kg, po via gavage measured up to 24 hrs by LC-MS analysis; assay type: ADME, organism-based; conditions: in vivo
# [7] = Stability in mouse liver microsomes assessed as parent compound remaining measured after 10 mins; assay type: ADME, Microsome; conditions: read-out: Stability
# [8] = biological target: T1, Interleukin-1 receptor-associated kinase 4 (Homo sapiens, UniProt Q9NWZ3); experiment: Inhibition of IRAK4 in human PBMC assessed as inhibition of LTA-induced IL-6 production preincubated for 30 mins followed by LTA-stimulation and measured after 5 hrs by ELISA; assay type: cell-based
# T1 sequence (Q9NWZ3 whole entry): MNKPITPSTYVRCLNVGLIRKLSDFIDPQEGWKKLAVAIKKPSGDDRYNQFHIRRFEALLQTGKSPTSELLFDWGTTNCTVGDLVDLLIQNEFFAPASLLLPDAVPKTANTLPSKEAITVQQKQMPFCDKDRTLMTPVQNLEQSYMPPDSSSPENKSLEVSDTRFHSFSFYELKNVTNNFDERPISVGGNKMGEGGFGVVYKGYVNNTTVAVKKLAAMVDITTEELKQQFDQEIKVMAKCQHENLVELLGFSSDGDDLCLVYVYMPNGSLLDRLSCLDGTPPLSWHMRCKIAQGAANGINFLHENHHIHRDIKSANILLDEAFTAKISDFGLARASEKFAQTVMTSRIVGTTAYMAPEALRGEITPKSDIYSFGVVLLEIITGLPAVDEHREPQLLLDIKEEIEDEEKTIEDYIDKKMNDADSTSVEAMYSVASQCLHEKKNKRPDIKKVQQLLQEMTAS
# [9] = AUC in mouse at 5 mg/kg, po via gavage measured up to 24 hrs by LC-MS analysis; assay type: ADME, organism-based; parameters: time < 24 hr, dose 5 mg/kg, route oral; conditions: in vivo
# Mus musculus [10] = experiment: Protection against po dosed imiquimod-induced psoriasis in C57BL/6 mouse assessed as reduction in clinical signs of psoriasis administered via gavage twice daily and measured on day 6; assay type: functional, organism-based
# [11] = biological target: T1, Interleukin-1 receptor-associated kinase 4; experiment: Inhibition of IRAK4 in human whole blood assessed as inhibition of LTA-induced IL-6 production preincubated for 30 mins followed by LTA-stimulation and measured after 5 hrs by ELISA; assay type: tissue-based
# [12] = biological target: T2, Interleukin-1 receptor-associated kinase 4 (Mus musculus) (UniProt Q8R4K2); experiment: In vivo Inhibition of IRAK4 in LTA-treated BALB/c mouse assessed as suppression of IL-6 level in serum at 0.3 mg/kg by ELISA relative to control; assay type: functional, organism-based
# T2 sequence (whole entry): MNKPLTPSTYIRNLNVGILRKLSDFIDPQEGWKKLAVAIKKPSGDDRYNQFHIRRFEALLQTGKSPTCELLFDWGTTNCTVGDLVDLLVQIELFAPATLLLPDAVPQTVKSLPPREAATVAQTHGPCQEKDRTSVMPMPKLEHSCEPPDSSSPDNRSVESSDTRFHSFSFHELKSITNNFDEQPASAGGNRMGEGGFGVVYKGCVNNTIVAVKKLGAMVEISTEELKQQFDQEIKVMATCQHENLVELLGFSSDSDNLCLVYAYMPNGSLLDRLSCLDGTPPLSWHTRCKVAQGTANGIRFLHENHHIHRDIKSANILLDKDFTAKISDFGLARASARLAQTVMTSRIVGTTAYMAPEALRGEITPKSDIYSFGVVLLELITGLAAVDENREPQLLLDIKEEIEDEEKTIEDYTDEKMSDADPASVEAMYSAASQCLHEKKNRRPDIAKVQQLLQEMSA
# [13] = biological target: T3, Interleukin-1 receptor-associated kinase 3 (Homo sapiens, UniProt Q9Y616); experiment: Inhibition of human wild type partial length IRAK3 (147 to 596 residues) expressed in bacterial expression system
# T3 sequence (Q9Y616 whole entry): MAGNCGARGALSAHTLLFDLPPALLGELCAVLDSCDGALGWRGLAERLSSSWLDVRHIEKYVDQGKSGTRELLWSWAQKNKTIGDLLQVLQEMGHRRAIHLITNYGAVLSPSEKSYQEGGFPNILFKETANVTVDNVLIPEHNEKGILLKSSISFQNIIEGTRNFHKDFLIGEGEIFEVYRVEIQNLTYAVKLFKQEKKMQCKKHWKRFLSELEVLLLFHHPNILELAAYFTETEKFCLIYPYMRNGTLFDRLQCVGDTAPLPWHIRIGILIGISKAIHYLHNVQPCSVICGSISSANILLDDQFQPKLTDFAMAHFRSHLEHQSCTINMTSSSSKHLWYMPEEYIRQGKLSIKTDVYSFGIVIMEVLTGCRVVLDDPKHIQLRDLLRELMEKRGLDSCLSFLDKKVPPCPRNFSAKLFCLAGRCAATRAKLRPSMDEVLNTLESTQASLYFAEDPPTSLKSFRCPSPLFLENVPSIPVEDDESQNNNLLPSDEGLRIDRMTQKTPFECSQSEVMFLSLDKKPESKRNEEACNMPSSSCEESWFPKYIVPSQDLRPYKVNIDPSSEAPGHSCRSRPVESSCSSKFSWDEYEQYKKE
# [14] = biological target: TRAF2 and NCK-interacting protein kinase (Homo sapiens, UniProt Q9UKE5); experiment: Inhibition of human wild type partial length TNIK (D4-K311 residues) expressed in bacterial expression system
# TRAF2 and NCK-interacting protein kinase, sequence (Q9UKE5 whole entry, the tested form may be a part): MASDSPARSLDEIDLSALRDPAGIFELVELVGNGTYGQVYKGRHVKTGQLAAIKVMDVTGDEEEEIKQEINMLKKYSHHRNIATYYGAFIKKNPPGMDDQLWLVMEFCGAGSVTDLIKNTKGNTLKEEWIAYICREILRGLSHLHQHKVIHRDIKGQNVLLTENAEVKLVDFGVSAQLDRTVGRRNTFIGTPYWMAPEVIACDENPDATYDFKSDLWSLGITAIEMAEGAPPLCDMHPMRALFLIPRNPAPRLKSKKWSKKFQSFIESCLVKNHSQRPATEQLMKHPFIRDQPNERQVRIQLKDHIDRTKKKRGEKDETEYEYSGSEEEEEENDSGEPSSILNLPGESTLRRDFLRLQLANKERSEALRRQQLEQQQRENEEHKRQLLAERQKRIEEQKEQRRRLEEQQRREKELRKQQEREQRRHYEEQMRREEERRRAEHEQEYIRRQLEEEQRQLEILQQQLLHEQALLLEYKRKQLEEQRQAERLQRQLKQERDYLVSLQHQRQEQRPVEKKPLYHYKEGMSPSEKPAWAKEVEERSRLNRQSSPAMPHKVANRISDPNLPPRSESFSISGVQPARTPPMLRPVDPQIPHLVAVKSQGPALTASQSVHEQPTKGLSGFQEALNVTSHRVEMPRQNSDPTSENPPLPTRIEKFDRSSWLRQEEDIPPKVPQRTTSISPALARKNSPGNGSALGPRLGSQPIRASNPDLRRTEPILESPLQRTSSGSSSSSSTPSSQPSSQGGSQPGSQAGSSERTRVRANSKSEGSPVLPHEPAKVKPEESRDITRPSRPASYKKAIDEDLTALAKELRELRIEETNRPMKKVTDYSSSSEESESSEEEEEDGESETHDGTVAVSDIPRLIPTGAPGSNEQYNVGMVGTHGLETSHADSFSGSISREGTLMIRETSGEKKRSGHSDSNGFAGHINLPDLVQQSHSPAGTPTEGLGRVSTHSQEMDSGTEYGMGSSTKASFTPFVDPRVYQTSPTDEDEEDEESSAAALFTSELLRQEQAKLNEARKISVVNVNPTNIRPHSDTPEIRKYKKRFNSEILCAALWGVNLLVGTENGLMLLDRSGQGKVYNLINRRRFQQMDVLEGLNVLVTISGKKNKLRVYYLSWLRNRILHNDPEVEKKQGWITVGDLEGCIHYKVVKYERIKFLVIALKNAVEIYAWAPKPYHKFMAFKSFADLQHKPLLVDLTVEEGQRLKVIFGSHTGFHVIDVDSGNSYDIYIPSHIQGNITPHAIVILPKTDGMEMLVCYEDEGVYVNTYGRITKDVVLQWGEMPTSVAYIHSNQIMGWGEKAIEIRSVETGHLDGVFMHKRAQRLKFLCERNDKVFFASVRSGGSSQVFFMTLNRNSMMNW
# Mus musculus [15] = species on record: Mus musculus; experiment: animal or person; conditions: C57BL/6, po, 144 h, read-out: INH; remark: listed apart in the source
# Homo sapiens = species on record: Homo sapiens; experiment: Selectivity index, ratio of IC50 for N-terminal His6-tagged human full length recombinant LCK expressed in baculovirus infected Sf21 cells to IC50 for IRAK4 (unknown origin)
# [16] = AUC in mouse at 2 mg/kg, iv administered as infusion measured up to 24 hrs by LC-MS analysis; assay type: ADME, organism-based; parameters: time < 24 hr, dose 2 mg/kg, route intravenous; conditions: in vivo
# Mus musculus [17] = species on record: Mus musculus; experiment: animal or person; conditions: C57BL/6, po, 144 h, read-out: INH; remark: listed apart in the source
# Mus musculus [18] = species on record: Mus musculus; experiment: animal or person; conditions: C57BL/6, po, 144 h, read-out: INH; remark: listed apart in the source
# [19] = Drug uptake in imiquimod-induced C57BL/6 mouse model of psoriasis at 3 mg/kg, po dosed via gavage twice daily and measured after 8 hrs by LC-MS analysis; assay type: ADME, organism-based; conditions: in vivo, read-out: Drug uptake
# [20] = Drug uptake in imiquimod-induced C57BL/6 mouse model of psoriasis at 0.3 mg/kg, po dosed via gavage twice daily and measured after 2 hrs by LC-MS analysis; assay type: ADME, organism-based; conditions: in vivo, read-out: Drug uptake
# Tyrosine-protein kinase Lck, sequence (P06239 whole entry): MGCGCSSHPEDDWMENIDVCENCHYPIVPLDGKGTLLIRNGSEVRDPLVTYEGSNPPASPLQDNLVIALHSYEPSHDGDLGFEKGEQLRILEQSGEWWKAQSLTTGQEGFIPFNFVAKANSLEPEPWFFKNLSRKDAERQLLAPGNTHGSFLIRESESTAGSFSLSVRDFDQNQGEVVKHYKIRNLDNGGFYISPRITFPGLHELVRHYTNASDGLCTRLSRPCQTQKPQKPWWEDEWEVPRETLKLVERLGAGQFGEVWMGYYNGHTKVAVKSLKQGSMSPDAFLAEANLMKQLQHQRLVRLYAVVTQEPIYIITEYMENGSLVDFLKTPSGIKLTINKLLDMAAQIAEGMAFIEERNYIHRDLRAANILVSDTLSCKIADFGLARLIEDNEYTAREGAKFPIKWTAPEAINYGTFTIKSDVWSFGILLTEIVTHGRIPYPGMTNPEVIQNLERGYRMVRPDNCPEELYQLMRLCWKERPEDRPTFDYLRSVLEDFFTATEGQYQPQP
structure (smiles),measurement,setting,value
CC(C)Nc1cc(Nc2nc3ccnn3cc2F)ncc1C(=O)NC[C@@H](F)C(C)(C)O,IC50,[1],> 2000 nM
same,concentration at 8 h,[2],12 nM
same,inhibition in vivo at 1 mg/kg,Mus musculus [3],27%
same,concentration at 8 h,[4],494 nM
same,half-life,[5],1.4 h
same,clearance,[6],15 mL/min/kg
same,remaining at 10 min,[7],89%
same,IC50,[8],370 nM
same,AUC at 24 h,[9],2.4 µM·h
same,Activity,Mus musculus [10],Dose-dependent effect
same,IC50,[11],920 nM
same,inhibition,[12],72%
same,IC50,[13],760 nM
same,IC50,[14],130 nM
same,inhibition in vivo at 3 mg/kg,Mus musculus [15],30%
same,Ratio IC50,Homo sapiens,> 590
same,AUC at 24 h,[16],5 µM·h
same,inhibition in vivo at 10 mg/kg,Mus musculus [17],64%
same,inhibition in vivo at 3 mg/kg,Mus musculus [18],41%
same,concentration at 8 h,[19],31 nM
same,concentration at 2 h,[20],42 nM
